Data on three molecules can be found in paper PMC6765698 (CPT: Pharmacometrics & Systems Pharmacology, 2019).

By Km is commonly meant the substrate concentration at which the rate is half of its maximum. In general, pKa refers to the negative logarithm of the acid dissociation constant. The logP is the decadic logarithm of the partition coefficient of the neutral form, usually between octanol and water. Higher therefore signals higher lipophilicity. The Ki is the dissociation constant of the complex between target and ligand, obtained from inhibition or displacement. Lower therefore signals tighter binding.

≈ marks a conversion by molar mass, not a printed value. Where two headings read alike, the source gives them in different places.

The target in data set [1] is T1, CYP3A4 (Homo sapiens, UniProt P08684). Briefly: Enzyme kinetics. The following applies: human liver microsomes. (Liver microsomes are vesicles of endoplasmic reticulum, rich in cytochrome P450 enzymes.)
T1 sequence (P08684 whole entry): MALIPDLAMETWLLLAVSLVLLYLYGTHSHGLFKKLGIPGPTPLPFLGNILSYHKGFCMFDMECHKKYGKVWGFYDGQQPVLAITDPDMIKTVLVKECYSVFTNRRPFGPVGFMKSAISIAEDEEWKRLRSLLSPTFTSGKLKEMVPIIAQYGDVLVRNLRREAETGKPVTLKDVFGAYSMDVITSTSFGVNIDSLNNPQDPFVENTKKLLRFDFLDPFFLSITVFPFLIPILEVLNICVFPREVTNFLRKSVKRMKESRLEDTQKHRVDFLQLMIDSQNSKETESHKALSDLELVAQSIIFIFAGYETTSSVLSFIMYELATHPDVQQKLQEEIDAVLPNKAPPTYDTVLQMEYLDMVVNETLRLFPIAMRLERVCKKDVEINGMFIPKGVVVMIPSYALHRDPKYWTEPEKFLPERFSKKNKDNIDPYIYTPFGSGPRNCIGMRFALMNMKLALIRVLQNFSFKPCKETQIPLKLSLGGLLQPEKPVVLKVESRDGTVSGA
The next data set in a line: WG PBPK model. Set-up: species or system human.
Data set [2] can be described thus: Equilibrium solubility in aqueous and bio-relevant media. The following applies: fed state simulated intestinal fluid, pH 5.0. It counts as physicochemical.
Data set [3] in a line: Acid dissociation constant pKa. It counts as physicochemical. Particulars: mean measured, WG, monoprotic base.
Data set [4] can be described thus: Octanol-water partition coefficient logP / logD. The format is physicochemical.
For data set [5] the following is noted: pH 1.1; ADAM model input; ref Taupitz 2013 42; cited from earlier work.
For data set [6] the following is noted: 100 mg i.v. dose; cited from earlier work.
The conditions of data set [7]: tube adsorption method; ref Isoherranen 2004 (34); cited from earlier work.
Data set [8] can be described thus: Fraction unbound in human liver microsomes. The format is in vitro ADME. The following applies: equilibrium dialysis at 0.05-[…], calculated at […], WG.
Data set [9] addresses T1, CYP3A4. The format is biochemical.
A short description of data set [10]: Blood/plasma partition ratio. The format is in vitro ADME. The following applies: WG.
The mark [11] stands for this setting: first-order absorption model, capsule fasted, adjusted to fit observed data.

Take `CCC(C)n1ncn(-c2ccc(N3CCN(c4ccc(OCC5COC(Cn6cncn6)(c6ccc(Cl)cc6Cl)O5)cc4)CC3)cc2)c1=O` (stereo not shown) [ITZ, itraconazole]: on CYP3A4 [1], the Km is 0.0233 µM. For the same molecule, the “Active uptake into hepatocyte (scaling factor)” value in the data set “WG PBPK model” (estimated to best describe ITZ IV CL) is 3.5. Besides, in the data set “WG PBPK model” (setting [11]), the Fa is recorded as 0.5 and the ka stood at 0.2 h⁻¹. Further, the “Solubility in FeSSIF” value in data set [2] was 5 µg/mL (≈ 7.09 µM). The molecule also came in with a pKa in [3] of 3.64. The same molecule had a log partition coefficient (logP) in data set [4] of 4.9. Also, the Intrinsic solubility in data set [5] is 150 µg/mL. Also, in [6], the “CL observed in vivo” value is listed as ~ 21 L/hour.

`O=c1[nH]ncn1-c1ccc(N2CCN(c3ccc(OCC4COC(Cn5cncn5)(c5ccc(Cl)cc5Cl)O4)cc3)CC2)cc1` (stereo not shown) [ND-ITZ]: the “fu,mic ([…] HLM)” value is given as 0.026 in data set [7] and 0.70 in [8]. Moreover, the “Fold less potent than previously reported (CYP3A4 inhibition)” value on CYP3A4 [9] (apparent Ki in microsomes with WG fu,mic vs literature) was “approximately 40 fold”.

Take `CC(O)C(C)n1ncn(-c2ccc(N3CCN(c4ccc(OCC5COC(Cn6cncn6)(c6ccc(Cl)cc6Cl)O5)cc4)CC3)cc2)c1=O` (stereo not shown) [OH-ITZ, hydroxyitraconazole]: the pKa in data set [3] (pKa) was 4. Further, in data set [4], the logP was 4.1. For the same molecule, the Ki at CYP3A4 [9] came out at 8.2 nM. The B/P in data set [10] is given as 0.55.
